15 molecules from US20260176265A1 (Cancer Research Technology Limited, priority 2022, published 2026) can be followed below.

Molecules are shown by their SMILES.

In assay [1] the target is CtermHisTag-mEGFR Wild type (Homo sapiens, UniProt P00533). The assay is described as follows: TR-FRET probe displacement assay, EGFR wild type. The format is binding. As to conditions: EGFR wild type 1.25 nM, probe 100 nM, 30 mins room temperature. As for the experimental part:
(§1) Compounds (dissolved to 100 mM in DMSO) were dispensed into black low volume 384 well assay plates (Corning) over a final concentration range of 100000, 30000, 10000, 3000, 1000, 300, 100, 30, 10, and 3 nM using an Echo 550 (Labcyte). Positive control compound and DMSO as a negative control were dispensed into the first and last well, respectively. […]. Plates were read using a PheraStar FS (BMG Labtech) at Ex337 nm Ex490/520 nm. The data were analysed using Graphpad Prism/Dotmatics Studies Software. Assays conducted in technical replicate and repeated as a biological duplicate.
(TR-FRET usually uses a lanthanide donor and a delayed reading to cut background.)

Assay [2] has as its target T1, Phospho-EGFR (Tyr1068) in H1975 C797S cells (Homo sapiens, UniProt P00533, C797S/L858R/T790M).
T1 construct: endogenous in cells; host or cells: H1975 C797S (CRISPR-edited in house from ATCC CRL-5908)
The assay is described as follows: HTRF pEGFR/total EGFR assay in H1975 C797S cells. The format is cell-based. As to conditions: H1975 C797S cells (CRISPR), compound 3 hours, ratio pEGFR/total EGFR. As for the experimental part: H1975 C797S cells (ATCC CRL-5908) were genetically engineered by CRISPR editing of EGFR C797S in house and validated by NGS. Cells were plated at 20,000 cells per well in 96 well plates and placed at 37° C. 5% CO2. Once adhered (after 24h) cells were treated with compounds dissolved in DMSO at a final concentration of 0.1% DMSO in media. Compounds were diluted in media then added to cells for 3 hours in duplicate. Compound and media were removed from the cells, then 50 ul of HTRF lysis buffer was added (lysis buffer was diluted from 4× stock to 1× in DI water, with 1% blocking agent also added). Cells were lysed on a plate shaker (2000 rpm) for 30 minutes at room temperature. pEGFR expression was monitored using the Cisbio Phospho-EGFR (Tyr1068) cellular kit (64EG1PEH). Total EGFR expression was monitored using the Cisbio Total EGFR cellular kit (64NG1PEH) as per manufacturer's instructions. Fluorescence emission was read at two different wavelengths (665 nm and 620 nm) on a PheraStar. Results were calculated as ratio of pEGFR/total EGFR and then percentage of 0 uM control.

Assay [3] concerns the target T2, Phospho-EGFR (Tyr1068) in H1975 cells (Homo sapiens, UniProt P00533, L858R/T790M).
T2 construct: host or cells: H1975
The assay is described as follows: HTRF pEGFR/total EGFR assay in H1975 cells. It counts as cell-based. As to conditions: compound 3 hours, ratio pEGFR/total EGFR. As for the experimental part: H1975 cells (ATCC CRL-5908) were plated at 20,000 cells per well in 96 well plates and placed at 37° C. 5% CO2. Once adhered (after 24h) cells were treated with compounds dissolved in DMSO at a final concentration of 0.1% DMSO in media. Compounds were diluted in media then added to cells for 3 hours in duplicate. Compound and media were removed from the cells, then 50ul of HTRF lysis buffer is added (lysis buffer was diluted from 4× stock to 1× in DI water, with 1% blocking agent also added). Cells were lysed on a plate shaker (2000 rpm) for 30 minutes at room temperature. pEGFR expression was monitored using the Cisbio Phospho-EGFR (Tyri068) cellular kit (64EG1 PEH). Total EGFR expression was monitored using the Cisbio Total EGFR cellular kit (64NG1 PEH) as per manufacturer's instructions. Fluorescence emission was read at two different wavelengths (665 nm and 620 nm) on a PheraStar. Results were calculated as ratio of pEGFR/total EGFR and then percentage of 0 uM control.

Assay [4] addresses CtermHisTag-mEGFR Triple Mutant - C797S, L858R, T790M (Homo sapiens, UniProt P00533, C797S/L858R/T790M). The assay is described as follows: TR-FRET probe displacement assay, EGFR triple mutant. The format is binding. As to conditions: T790M 1.25 nM, probe 100 nM, 30 mins room temperature. As for the experimental part: as §1
Assay [5] addresses T3, Phospho-EGFR (Tyr1068) in A431 cells (Homo sapiens, UniProt P00533).
T3 construct: endogenous in cells; host or cells: A431
The assay is described as follows: HTRF pEGFR/total EGFR assay in A431 cells (EGF stimulated). It counts as cell-based. As to conditions: compound 2.5 hours then 100 ng/ml EGF 30 mins, ratio pEGFR/total EGFR. As for the experimental part:
Cells were plated at 20,000 cells per well in 96 well plates and placed at 37° C. 5% CO2. Once adhered (after 24h) cells were treated with compounds dissolved in DMSO at a final concentration of 0.1% DMSO in media. Compounds were diluted in media then added to cells for 2.5 hours in duplicate, 100 ng/ml EGF (ThermoFisher, PHG0311 was is added to all compound treated cells as well as a control for 30 mins. Compound and media were removed from the cells, then 50ul of HTRF lysis bufferwas added (lysis bufferwas diluted from 4× stock to 1× in DI water, with 1% blocking agent also added). Cells were lysed on a plate shaker (2000 rpm) for 30 minutes at room temperature. pEGFR expression was monitored using the Cisbio Phospho-EGFR (Tyr1068) cellular kit (64EG1PEH). Total EGFR expression was monitored using the Cisbio Total EGFR cellular kit (64NG1PEH) as per manufacturer's instructions. Fluorescence emission was read at two different wavelengths (665 nm and 620 nm) on a PheraStar. Results were calculated as ratio of pEGFR/total EGFR and then percentage of OuM control.

T2 sequence (P00533 25-1210 T790M/L858R): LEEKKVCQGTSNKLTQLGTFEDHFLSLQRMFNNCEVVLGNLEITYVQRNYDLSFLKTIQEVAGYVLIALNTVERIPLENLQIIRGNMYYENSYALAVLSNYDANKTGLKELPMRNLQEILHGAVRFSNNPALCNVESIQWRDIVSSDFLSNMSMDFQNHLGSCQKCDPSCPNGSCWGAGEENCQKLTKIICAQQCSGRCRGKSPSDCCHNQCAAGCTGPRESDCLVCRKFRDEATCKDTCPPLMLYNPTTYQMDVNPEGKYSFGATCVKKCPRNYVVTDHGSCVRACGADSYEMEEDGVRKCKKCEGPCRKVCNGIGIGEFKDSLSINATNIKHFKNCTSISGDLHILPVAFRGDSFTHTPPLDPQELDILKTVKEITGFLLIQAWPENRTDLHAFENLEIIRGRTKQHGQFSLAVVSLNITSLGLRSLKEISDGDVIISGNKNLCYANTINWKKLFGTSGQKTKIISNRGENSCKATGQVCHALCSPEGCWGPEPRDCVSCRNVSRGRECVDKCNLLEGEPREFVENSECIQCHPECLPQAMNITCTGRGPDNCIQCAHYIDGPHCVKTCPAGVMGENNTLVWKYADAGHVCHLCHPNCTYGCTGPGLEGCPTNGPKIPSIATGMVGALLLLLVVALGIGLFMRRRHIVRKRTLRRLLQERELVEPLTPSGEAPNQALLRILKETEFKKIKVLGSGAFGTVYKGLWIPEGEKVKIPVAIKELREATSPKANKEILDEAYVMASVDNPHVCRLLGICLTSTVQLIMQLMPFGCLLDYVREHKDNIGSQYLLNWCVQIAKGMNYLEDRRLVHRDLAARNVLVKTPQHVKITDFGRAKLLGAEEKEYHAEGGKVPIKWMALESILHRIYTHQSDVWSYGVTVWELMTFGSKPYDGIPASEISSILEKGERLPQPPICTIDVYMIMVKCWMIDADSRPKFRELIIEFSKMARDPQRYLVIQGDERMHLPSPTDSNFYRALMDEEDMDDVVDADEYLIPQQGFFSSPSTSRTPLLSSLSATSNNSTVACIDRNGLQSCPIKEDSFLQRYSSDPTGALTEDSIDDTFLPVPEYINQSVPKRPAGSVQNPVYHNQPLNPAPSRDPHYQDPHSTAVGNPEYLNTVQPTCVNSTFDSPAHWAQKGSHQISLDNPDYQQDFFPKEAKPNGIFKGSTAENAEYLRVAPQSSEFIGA
T1 sequence (P00533 25-1210 T790M/C797S/L858R): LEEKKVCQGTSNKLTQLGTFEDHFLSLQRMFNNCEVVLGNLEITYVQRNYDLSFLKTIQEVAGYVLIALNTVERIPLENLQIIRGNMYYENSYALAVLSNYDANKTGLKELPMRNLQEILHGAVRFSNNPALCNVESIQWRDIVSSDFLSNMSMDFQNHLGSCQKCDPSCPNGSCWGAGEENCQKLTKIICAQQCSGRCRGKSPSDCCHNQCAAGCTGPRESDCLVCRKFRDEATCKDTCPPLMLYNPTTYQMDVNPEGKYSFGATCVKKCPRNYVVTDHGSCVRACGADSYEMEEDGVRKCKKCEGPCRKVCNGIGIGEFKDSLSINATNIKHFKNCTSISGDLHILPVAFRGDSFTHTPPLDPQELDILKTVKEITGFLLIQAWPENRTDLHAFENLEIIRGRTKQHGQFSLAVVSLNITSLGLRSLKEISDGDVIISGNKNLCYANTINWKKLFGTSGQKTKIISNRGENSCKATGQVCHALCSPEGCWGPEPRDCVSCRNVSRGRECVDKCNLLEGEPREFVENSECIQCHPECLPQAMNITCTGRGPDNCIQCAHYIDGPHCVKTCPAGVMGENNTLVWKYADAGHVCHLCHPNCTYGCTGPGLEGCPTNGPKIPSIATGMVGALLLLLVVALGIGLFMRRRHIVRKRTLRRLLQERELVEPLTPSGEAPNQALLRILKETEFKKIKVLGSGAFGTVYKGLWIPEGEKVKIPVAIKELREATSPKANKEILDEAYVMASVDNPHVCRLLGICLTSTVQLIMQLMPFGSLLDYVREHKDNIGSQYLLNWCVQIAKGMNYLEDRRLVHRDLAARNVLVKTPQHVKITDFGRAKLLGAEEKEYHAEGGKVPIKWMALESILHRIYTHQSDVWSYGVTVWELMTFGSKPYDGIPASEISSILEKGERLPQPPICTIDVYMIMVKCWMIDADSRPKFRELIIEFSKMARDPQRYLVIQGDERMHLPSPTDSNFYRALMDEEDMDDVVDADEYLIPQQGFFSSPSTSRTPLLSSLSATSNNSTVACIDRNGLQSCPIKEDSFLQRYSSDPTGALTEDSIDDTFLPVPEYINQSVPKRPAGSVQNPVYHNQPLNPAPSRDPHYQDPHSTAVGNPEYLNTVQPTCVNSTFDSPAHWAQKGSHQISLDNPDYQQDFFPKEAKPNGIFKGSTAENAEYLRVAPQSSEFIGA
CtermHisTag-mEGFR Triple Mutant - C797S, L858R, T790M, sequence (P00533 25-1210 T790M/C797S/L858R): as above
CtermHisTag-mEGFR Wild type, sequence (P00533 25-1210): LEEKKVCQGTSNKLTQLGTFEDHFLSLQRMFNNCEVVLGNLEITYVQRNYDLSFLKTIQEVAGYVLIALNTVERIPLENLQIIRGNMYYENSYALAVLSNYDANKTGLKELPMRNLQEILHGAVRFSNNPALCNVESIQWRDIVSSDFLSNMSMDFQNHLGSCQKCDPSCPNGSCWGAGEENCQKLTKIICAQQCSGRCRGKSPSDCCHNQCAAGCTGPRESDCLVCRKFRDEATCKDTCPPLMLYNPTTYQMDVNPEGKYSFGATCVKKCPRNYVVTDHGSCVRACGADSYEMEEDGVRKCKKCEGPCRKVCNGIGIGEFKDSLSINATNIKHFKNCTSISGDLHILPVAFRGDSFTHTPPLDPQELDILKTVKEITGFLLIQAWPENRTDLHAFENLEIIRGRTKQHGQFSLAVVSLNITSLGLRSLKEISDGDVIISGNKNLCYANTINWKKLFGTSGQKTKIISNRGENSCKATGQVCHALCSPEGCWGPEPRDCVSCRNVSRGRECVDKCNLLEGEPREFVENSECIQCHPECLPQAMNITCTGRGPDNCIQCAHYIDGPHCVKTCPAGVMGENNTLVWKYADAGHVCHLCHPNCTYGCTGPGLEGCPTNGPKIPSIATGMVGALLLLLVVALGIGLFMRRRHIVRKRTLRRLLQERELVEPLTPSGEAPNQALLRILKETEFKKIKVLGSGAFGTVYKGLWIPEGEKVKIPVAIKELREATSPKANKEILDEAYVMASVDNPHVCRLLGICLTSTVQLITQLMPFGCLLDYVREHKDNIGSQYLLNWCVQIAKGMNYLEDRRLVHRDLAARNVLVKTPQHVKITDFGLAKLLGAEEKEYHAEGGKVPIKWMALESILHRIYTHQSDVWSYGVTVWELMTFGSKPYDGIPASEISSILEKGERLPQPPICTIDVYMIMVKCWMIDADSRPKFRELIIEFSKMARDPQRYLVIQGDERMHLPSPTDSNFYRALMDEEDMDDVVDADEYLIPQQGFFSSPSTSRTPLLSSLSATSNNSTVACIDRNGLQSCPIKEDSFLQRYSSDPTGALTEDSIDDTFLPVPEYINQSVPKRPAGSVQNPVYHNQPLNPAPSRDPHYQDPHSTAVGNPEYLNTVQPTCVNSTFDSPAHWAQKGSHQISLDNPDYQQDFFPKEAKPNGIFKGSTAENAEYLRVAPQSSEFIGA

Take `C#Cc1cc(NC(=O)NC2CCCC2)nc2nc(Nc3ccc(N4CCN(C)CC4)cc3)ncc12` [Example 38, 1-cyclopentyl-3-(5-ethynyl-2-((4-(4-methylpiperazin-1-yl)phenyl)amino)pyrido[2,3-d]pyrimidin-7-yl)urea]: the 50% inhibitory concentration (IC50) (commonly the point on the concentration scale where inhibition reaches its midpoint) in assay [1] was below 1 µM; in assay [2] it was below 0.5 µM; in assay [3], below 0.5 µM; in assay [4], below 0.02 µM; in assay [5], below 0.5 µM.
As to `C#Cc1cc(NC(=O)Nc2ncc[nH]2)nc2nc(Nc3ccc(N4CCN(C)CC4)cc3)ncc12` [Example 59, 1-(5-ethynyl-2-{[4-(4-methylpiperazin-1-yl)phenyl]amino}pyrido[2,3-d]pyrimidin-7-yl)-3-(1H-imidazol-2-yl)urea], the IC50 in assay [1] is below 1 µM; in assay [2] it was 1 to 3 µM; in assay [3], 1 to 3 µM; in assay [4], below 0.02 µM; in assay [5] it was above 3 µM.
As to `C#Cc1cc(NC(=O)NCc2ccno2)nc2nc(Nc3ccc(N4CCN(C)CC4)cc3)ncc12` [Example 47, 1-(5-ethynyl-2-{[4-(4-methylpiperazin-1-yl)phenyl]amino}pyrido[2,3-d]pyrimidin-7-yl)-3-(1,2-oxazol-5-ylmethyl)urea], the IC50 in assay [1] was below 1 µM; in assay [2] it was 1 to 3 µM; in assay [3], 0.5 to 1 µM; in assay [4], 0.02 to 0.1 µM; in assay [5] it was above 3 µM.
The matching figures for `C#Cc1cc(OC2CCCCC2)nc2nc(Nc3ccc(N4CCN(C)CC4)cc3)ncc12` [Example 14, 7-(cyclohexyloxy)-5-ethynyl-N-(4-(4-methylpiperazin-1-yl)phenyl)pyrido[2,3-d]pyrimidin-2-amine]: above 10 µM, above 3 µM, above 3 µM, 0.1 to 1 µM and above 3 µM.
In the case of `C#Cc1cc(OC)nc2nc(Nc3cccc(CN(C)C)c3)ncc12` [Example 9, N-{3-[(dimethylamino)methyl]phenyl}-5-ethynyl-7-methoxypyrido[2,3-d] pyrimidin-2-amine], the IC50 in assay [1] was above 10 µM; in assay [2], above 3 µM; in assay [3], above 3 µM; in assay [4], 0.1 to 1 µM; in assay [5], above 3 µM.
On to `C#Cc1cc(NC(=O)NC2CN(S(C)(=O)=O)C2)nc2nc(Nc3ccc(N4CCN(C)CC4)cc3)ncc12` [Example 57, 1-(5-ethynyl-2-{[4-(4-methylpiperazin-1-yl)phenyl]amino}pyrido[2,3-d]pyrimidin-7-yl)-3-(1-methanesulfonylazetidin-3-yl)urea], for which the IC50 was below 1 µM in assay [1]; above 3 µM in assay [2]; above 3 µM in assay [3]; below 0.02 µM in assay [4]; above 3 µM in assay [5].
As for `C#Cc1cc(NC(=O)NC2CCCC2)nc2nc(Nc3cccc4c3CN(C)C4)ncc12` [Example 117, 3-Cyclopentyl-1-{5-ethynyl-2-[(2-methyl-1,3-dihydroisoindol-4-yl)amino]pyrido[2,3-d]pyrimidin-7-yl}urea], the IC50 in assay [1] was 1 to 10 µM; in assay [2] it was above 3 µM; in assay [3], above 3 µM; in assay [4] it was 0.1 to 1 µM; in assay [5] it was above 3 µM.
For `C#Cc1cc(N2C(=O)N(C)CC23CCCC3)nc2nc(Nc3ccc(S(=O)(=O)N(C)CCN(C)C)cc3)ncc12` [Example 110, N-[2-(Dimethylamino)ethyl]-4-[(5-ethynyl-7-{3-methyl-2-oxo-1,3-diazaspiro[4.4]nonan 1-yl}pyrido[2,3-d]pyrimidin-2-yl)amino]-N-methylbenzenesulfonamide], the IC50 in assay [1] is above 10 µM; in assay [2] it was above 3 µM; in assay [3], above 3 µM; in assay [4] it was 0.1 to 1 µM; in assay [5], above 3 µM.
Consider `C#Cc1cc(N2C(=O)NCC23CCCC3)nc2nc(Nc3ccc(OCCN(C)C)cc3)ncc12` [Example 95], for which the IC50 in assay [1] was below 1 µM; in assay [2] it was 1 to 3 µM; in assay [3] it was 1 to 3 µM; in assay [4] it was 0.02 to 0.1 µM; in assay [5], 0.5 to 1 µM.
As for `C#Cc1cc(NC(=O)OC2CCCC2)nc2nc(Nc3ccc(N4CCN(C)CC4)cc3)ncc12` [Example 65, cyclopentyl (5-ethynyl-2-((4-(4-methylpiperazin-1-yl)phenyl)amino)pyrido[2,3-d]pyrimidin-7-yl)carbamate], the IC50 was above 10 µM in assay [1]; above 3 µM in assay [2]; 1 to 3 µM in assay [3]; 0.1 to 1 µM in assay [4]; above 3 µM in assay [5].
Consider `C#Cc1cc(NC(=O)NC2(C)CCOC2)nc2nc(Nc3ccc(N4CCN(C)CC4)cc3)ncc12` (stereo not drawn) [Example 62], for which the IC50 in assay [1] is below 1 µM; in assay [2] it was below 0.5 µM; in assay [3] it was below 0.5 µM; in assay [4], below 0.02 µM; in assay [5], 0.5 to 1 µM.
As to `C#Cc1cc(N2C(=O)OCC2CC2CCCC2)nc2nc(Nc3ccc(N4CCN(C)CC4)cc3)ncc12` (stereo not drawn) [Example 112, 4-(Cyclopentylmethyl)-3-(5-ethynyl-2-{[4-(4-methylpiperazin-1-yl)phenyl]amino}pyrido[2,3-d]pyrimidin-7-yl)-1,3-oxazolidin-2-one], the half-inhibitory concentration (IC50) in assay [1] was below 1 µM; in assay [2], 0.5 to 1 µM; in assay [3], 0.5 to 1 µM; in assay [4], below 0.02 µM; in assay [5] it was above 3 µM.
Consider `C#Cc1cc(N2CC(C(C)C)OC2=O)nc2nc(Nc3ccc(N4CCN(C)CC4)cc3)ncc12` (stereo not drawn) [Example 113, 3-(5-Ethynyl-2-{[4-(4-methylpiperazin-1-yl)phenyl]amino}pyrido[2,3-d]pyrimidin-7-yl)-5-isopropyl-1.3-oxazolidin-2-one], for which the IC50 was above 10 µM in assay [1]; 1 to 3 µM in assay [2]; 0.5 to 1 µM in assay [3]; 0.02 to 0.1 µM in assay [4]; above 3 µM in assay [5].
For `C#Cc1cc(NC(=O)N(C)C2CCCC2)nc2nc(Nc3ccc(N4CCN(C)CC4)cc3)ncc12` [Example 74, 3-Cyclopentyl-1-(5-ethynyl-2-{[4-(4-methylpiperazin-1-yl)phenyl]amino}pyrido[2,3-d]pyrimidin-7-yl)-3-methylurea], the IC50 in assay [1] was 1 to 10 µM; in assay [2] it was above 3 µM; in assay [3] it was above 3 µM; in assay [4], 0.1 to 1 µM; in assay [5] it was above 3 µM.
For `C#Cc1cc(NC(=O)NC2CCCC2)nc2nc(Nc3cccc(N(C)[C@H]4C[C@H](CS(C)(=O)=O)C4)c3)ncc12` [Example 122], the IC50 was below 1 µM in assay [1]; below 0.5 µM in assay [2]; below 0.5 µM in assay [3]; below 0.02 µM in assay [4]; 1 to 3 µM in assay [5].
